We go through five compounds from paper PMC5456363 (PLoS ONE, 2017).

A short description of data set [1]: Peptide stability in activated serum (AS). The conditions noted are these: 37°C. It is filed as in vitro ADME, CD-1 mice. Here is the method:
(§1) All stability tests were performed at least in triplicates.

The nature of data set [2]: Peptide stability in commercial serum (CS). It is filed as in vitro ADME, mouse. The conditions noted are these: 37°C. On the procedure: as §1
A short description of data set [3]: Stability and metabolites across fresh blood, serum and plasma (all six matrices). The following applies: fresh blood, serum, and plasma.
Method: Aqueous peptide solutions (3 g/L) were filled in a sterile syringe (1 mL, Dispomed Witt oHG, Gelnhausen, Deutschland) through the front end, the stainless-steel needle was attached, and blood (200 to 300 μL) was collected via cardiac puncture to obtain a peptide concentration of approximately 31,5 μmol/L. The syringe was carefully disconnected from the needle and sealed while keeping the needle in the heart. A second empty syringe was attached to the needle and 0.5 to 0.8 mL blood were collected. In parallel, the sealed syringe was gently shaken for one minute to mix the peptide solution with blood and further incubated on a Stuart Rotator SB3 (Barloworld, Scientific LTD, Stone, Staffordshire, U.K.) placed in an incubator at 37°C. […] The plasma sample designated as “blood” (B) was precipitated with trichloroacetic acid (TCA), as described below. Blood collected in the second syringe was transferred to a polypropylene tube (Eppendorf AG, Hamburg, Germany) and a BD Microtainer® serum separator tube (SST; Becton, Dickinson and Company). Polypropylene tubes were centrifuged immediately (12,000 x g, 2 to 4 min) to obtain “direct serum” (DS) as supernatant, whereas the serum separator tubes were incubated (room temperature, 1 h), centrifuged (12,000 x g, 2 min), and collected as “activated serum” (AS). Pooled mouse serum was purchased from PAA Laboratories GmbH (Pasching, Austria) and pooled CD-1 mouse plasma containing K2EDTA or lithium heparin were obtained from Innovative Research (Novi, MI, USA).
Peptides were mixed with serum or plasma to a final concentration of 31.5 μmol/L and incubated (37°C, 750 rpm; Thermomixer, Eppendorf AG, Hamburg, Germany). Aliquots (20 or 40 μL) taken after 0 and 60 min (0, 10 and 30 min for Api88) were mixed with TCA to obtain a final concentration of 3% (w/v) and incubated on ice (10 min). After centrifugation (12,000 x g, 5 min), the supernatant was neutralized with sodium hydroxide (1 mol/L) and stored at −20°C. Samples were analyzed by RP-HPLC on a Jupiter C18-column (internal diameter: 2 mm, length: 150 mm, particle size: 5 μm, pore size: 30 nm) using a linear aqueous acetonitrile gradient containing TFA (0.1%, v/v) as ion pair reagent. Peptides were detected by recording the absorbance at 214 nm and quantified by their peak areas relative to the initial peak areas (0 min). All stability tests were performed at least in triplicates.
Metabolites were identified on an Agilent 1100 LC system (Agilent Technologies, Santa Clara, CA, USA) coupled on-line via a UV-detector (absorbance recorded at 214 nm) to the electrospray ionization source on an ion trap mass spectrometer (ESI-IT-MS, Esquire HCT, Bruker Daltonics GmbH, Bremen, Germany). Samples were separated on an Aqua C18-column (inner diameter: 2 mm, length: 150 mm, particle size: 3 μm, pore size: 12.5 nm, Phenomenex; column temperature: 60°C) at a flow rate of 0.2 mL/min using a linear gradient of aqueous acetonitrile in the presence of formic acid (FA; 0.1%, v/v) as ion pair reagent. […] The ESI-IT-MS was operated in positive ion mode. Ionization was carried out at 365°C (source temperature) using nitrogen as curtain gas (40 psi) and dry gas (9 L/min). Mass spectra were acquired for an m/z range from 400 to 1300 at a scan rate of 8100 m/z-units per second in standard enhanced mode.
Data set [4] can be described thus: Peptide stability in heparin plasma (HP). The data set is classed as in vitro ADME, CD-1 mouse. The following applies: CD-1, mouse, pooled plasma containing lithium heparin, 37°C, read-out: intact peptide remaining relative to time zero. On the procedure:
as §1

The conditions of data set [5]: in vitro, mouse serum; cited from earlier work.
For data set [6], the target named is T1, human α-thrombin (Homo sapiens, UniProt P00734).
T1 construct: with human α-Thrombin for 0, 1, and 24 hours
Briefly: α-Thrombin stability assay. It is filed as in vitro ADME. Here is the method: Supplementary file pone.0178943.s003.tif: S3 Fig Stability of Api88, Api137, and LVPR-Onc112 against human α-thrombin. Chromatograms recorded after incubation of Api88 (a), Api137 (b), or LVPR-Onc112 (c) with human α-Thrombin for 0, 1, and 24 hours (UV absorbance). […] (TIF) Click here for additional data file.
S1 Text. Method α-Thrombin stability assay.

A short description of data set [7]: Peptide stability in EDTA plasma (EP). It is filed as in vitro ADME, CD-1 mouse. The following applies: 37°C. Here is the method: as §1
Data set [8] is described as follows: Peptide stability in direct serum (DS). The following applies: 37°C. It is filed as in vitro ADME, CD-1 mice. Here is the method:
as §1

Data set [9] in a line: “activated serum” (AS): serum separator tubes incubated (room temperature, 1 h), centrifuged. The conditions noted are these: CD-1 mice, 37°C, up to 60 min.
The nature of data set [10]: pooled CD-1 mouse plasma containing lithium heparin (heparin plasma, HP). The following applies: 37°C, up to 60 min.
Data set [11] in a line: pooled CD-1 mouse plasma containing K2EDTA (EDTA plasma, EP). The following applies: 37°C, up to 60 min.
The nature of data set [12]: 25% aqueous commercial serum. The following applies: cited from earlier work.
Data set [13] is described as follows: blood collected via cardiac puncture into a syringe containing the peptide solution (“blood”, B). The conditions noted are these: CD-1 mice, 37°C, up to 60 min.
Data set [14] is described as follows: Pooled mouse serum (PAA Laboratories), commercial serum (CS). The conditions noted are these: 37°C, up to 60 min.
The nature of data set [15]: “direct serum” (DS): blood in polypropylene tubes centrifuged immediately. The conditions noted are these: CD-1 mice, 37°C, up to 60 min.
Data set [16] deals with human α-thrombin. The experiment in a line: human α-thrombin. The following applies: up to 24 hours.
The nature of data set [17]: Peptide stability in fresh blood taken by cardiac puncture into a syringe containing the peptide (blood, B). The data set is classed as in vitro ADME, CD-1 mice. Here is the method:
as §1

Values joined by “and” are separate entries in the source; they are usually repeats but may differ in a detail not shown here. Equal entries are not always repeated. Non-standard residues stand in square brackets, D forms with d. Residues, ends and D or L forms follow the SMILES beside them. *: point of attachment. Orn(α-tetramethylguanidino) = CN(C)C(=N[C@@H](CCCN)C(=O)*)N(C)C

With `CC[C@H](C)[C@H](NC(=O)[C@H](Cc1ccc(O)cc1)NC(=O)[C@@H](NC(=O)[C@@H]1CCCN1C(=O)[C@H](CCCNC(=N)N)NC(=O)[C@H](CC(N)=O)NC(=O)[C@H](CC(N)=O)NC(=O)[C@H](CCCN)N=C(N(C)C)N(C)C)C(C)C)C(=O)N1CCC[C@H]1C(=O)N[C@@H](CCCNC(=N)N)C(=O)N1CCC[C@H]1C(=O)N[C@@H](CCCNC(=N)N)C(=O)N1CCC[C@H]1C(=O)N1CCC[C@H]1C(=O)N[C@@H](Cc1c[nH]cn1)C(=O)N1CCC[C@H]1C(=O)N[C@@H](CCCNC(=N)N)C(=O)N[C@@H](CC(C)C)C(=O)O` [Api137, gu-ONNRPVYIPRPRPPHPRL-OH] ({Orn(α-tetramethylguanidino)}-NNRPVYIPRPRPPHPRL-OH), the “intact peptide remaining relative to time zero” value in data set [1] (1 h, 31.5 μmol/L) is reported as not below 94%; in data set [7] (1 h, 31.5 μmol/L), not below 94%; in data set [8] (1 h, 31.5 μmol/L) it was not below 94%. Further, the amount remaining at 1 h, 31.5 μmol/L in data set [2] (commercial pooled serum, commercial mouse serum, 1 h, 31.5 μmol/L, read-out: intact peptide remaining relative to time zero) is 87 ± 9%; in [4] (1 h, 31.5 μmol/L) it was 83 ± 2%. In data set [3], the Overall stability result is “High”. Moreover, the Sequential stability entry in [3] is listed as “Blood = Plasma = Serum”. The “half-life time in mouse serum” value in data set [5] is on record as 6 h. For the same compound, on human α-thrombin [6] (after 24 h), the “proteolytic cleavage by human α-thrombin” value is “remained mostly intact”.

In the case of “AAYRVDKPPYLPRPRPPRrIYNr-NH2 (H-AAYRVDKPPYLPRPRPPR[dR]IYN[dR]-NH2; SMILES CC[C@H](C)[C@H](NC(=O)[C@@H](CCCNC(=N)N)NC(=O)[C@H](CCCNC(=N)N)NC(=O)[C@@H]1CCCN1C(=O)[C@@H]1CCCN1C(=O)[C@H](CCCNC(=N)N)NC(=O)[C@@H]1CCCN1C(=O)[C@H](CCCNC(=N)N)NC(=O)[C@@H]1CCCN1C(=O)[C@H](CC(C)C)NC(=O)[C@H](Cc1ccc(O)cc1)NC(=O)[C@@H]1CCCN1C(=O)[C@@H]1CCCN1C(=O)[C@H](CCCCN)NC(=O)[C@H](CC(=O)O)NC(=O)[C@@H](NC(=O)[C@H](CCCNC(=N)N)NC(=O)[C@H](Cc1ccc(O)cc1)NC(=O)[C@H](C)NC(=O)[C@H](C)N)C(C)C)C(=O)N[C@@H](Cc1ccc(O)cc1)C(=O)N[C@@H](CC(N)=O)C(=O)N[C@H](CCCNC(=N)N)C(N)=O)”, the fragment found is 5–23 [Onc112]; VDKPPYLPRPRPPRrIYNr-NH2 in [9]; 5–23 [Onc112]; VDKPPYLPRPRPPRrIYNr-NH2 in data set [10]; 5–23 [Onc112]; VDKPPYLPRPRPPRrIYNr-NH2 in [11]; “Onc112” in data set [12]; 5–23 [Onc112]; VDKPPYLPRPRPPRrIYNr-NH2 in [13]; 5–23 [Onc112]; VDKPPYLPRPRPPRrIYNr-NH2 in data set [14]. Besides, the fragment found in data set [15] is 5–23 [Onc112]; VDKPPYLPRPRPPRrIYNr-NH2.

For the compound “gu-ONNRPVYIPRPRPPHPRL-NH2 ({Orn(α-tetramethylguanidino)}-NNRPVYIPRPRPPHPRL-NH2; SMILES CC[C@H](C)[C@H](NC(=O)[C@H](Cc1ccc(O)cc1)NC(=O)[C@@H](NC(=O)[C@@H]1CCCN1C(=O)[C@H](CCCNC(=N)N)NC(=O)[C@H](CC(N)=O)NC(=O)[C@H](CC(N)=O)NC(=O)[C@H](CCCN)N=C(N(C)C)N(C)C)C(C)C)C(=O)N1CCC[C@H]1C(=O)N[C@@H](CCCNC(=N)N)C(=O)N1CCC[C@H]1C(=O)N[C@@H](CCCNC(=N)N)C(=O)N1CCC[C@H]1C(=O)N1CCC[C@H]1C(=O)N[C@@H](Cc1c[nH]cn1)C(=O)N1CCC[C@H]1C(=O)N[C@@H](CCCNC(=N)N)C(=O)N[C@@H](CC(C)C)C(N)=O)”, the cleaved bond result is “Arg17-Leu18, major” in data set [9]; “Arg17-Leu18, major” in [10]; “Arg17-Leu18, major” in data set [11]; “R17-L18, one hour” in the data set on human α-thrombin [16]; “Arg17-Leu18, major” in data set [13]; “Arg17-Leu18, major” in data set [14]. Besides, the cleaved bond result in data set [15] is “Arg17-Leu18, major”. The fragment found result is recorded as “Api88(1–16)” in data set [9], “Api88(1–16)” in data set [13], “Api88(1–16); gu-ONNRPVYIPRPRPPHP-OH” in data set [14] and “Api88(1–16)” in [15].

As to `CC[C@H](C)[C@H](NC(=O)[C@H](Cc1ccc(O)cc1)NC(=O)[C@@H](NC(=O)[C@@H]1CCCN1C(=O)[C@H](CCCNC(=N)N)NC(=O)[C@H](CC(N)=O)NC(=O)[C@H](CC(N)=O)NC(=O)[C@H](CCCN)N=C(N(C)C)N(C)C)C(C)C)C(=O)N1CCC[C@H]1C(=O)N[C@@H](CCCNC(=N)N)C(=O)N1CCC[C@H]1C(=O)N[C@@H](CCCNC(=N)N)C(=O)N1CCC[C@H]1C(=O)N1CCC[C@H]1C(=O)N[C@@H](Cc1c[nH]cn1)C(=O)N1CCC[C@H]1C(=O)N[C@@H](CCCNC(=N)N)C(=O)N[C@@H](CC(C)C)C(N)=O` [Api88, gu-ONNRPVYIPRPRPPHPRL-NH2] ({Orn(α-tetramethylguanidino)}-NNRPVYIPRPRPPHPRL-NH2), the “intact peptide remaining relative to time zero” value in [1] (30 min) is recorded as “fully degraded”; in data set [2] (commercial serum, 30 min), “fully degraded”; in data set [17] (blood, 37°C, 10 min), 88 ± 15%; in data set [8] (30 min), “fully degraded”. The share remaining at 10 min, 31.5 μmol/L was 22 ± 5% in [1] (CD-1, mouse, 10 min, read-out: intact peptide remaining relative to time zero); 10 ± 2% in [2] (mouse, commercial pooled serum, commercial serum, 10 min, read-out: intact peptide remaining relative to time zero); 77 ± 5% in [4] (10 min); 48 ± 4% in [7] (CD-1, mouse, pooled plasma containing K2EDTA, 10 min, read-out: intact peptide remaining relative to time zero); 11 ± 6% in data set [8] (CD-1, mouse, direct serum (supernatant of blood centrifuged immediately), 10 min, read-out: intact peptide remaining relative to time zero). In addition, in [3], the Overall stability entry is “Low”. Besides, the Sequential stability result in [3] is “Blood > Plasma > Serum”. Besides, the fraction remaining at 0.5 h, 31.5 μmol/L in data set [4] (30 min) worked out at 36 ± 1%; in [7] (CD-1, mouse, pooled plasma containing K2EDTA, 30 min, read-out: intact peptide remaining relative to time zero) it was 5 ± 3%. Moreover, in [17] (CD-1, mouse, fresh whole blood taken by cardiac puncture, indicated by the recovery after 10 min, read-out: half-life time in fresh mouse blood (converted)), the half-life at 31.5 μmol/L is approximately 1 h. Moreover, the fraction remaining at 10 min in data set [17] (CD-1, mouse, fresh whole blood, blood, 37°C, 10 min, read-out: intact peptide remaining relative to time zero) stood at 88 ± 14%. Moreover, the amount remaining at 0.5 h in data set [17] (CD-1, mouse, fresh whole blood, blood, 37°C, 30 min, read-out: intact peptide remaining relative to time zero) came out at 30 ± 14%. Besides, the “half-life time in fresh mouse blood relative to that reported for serum” value in [17] (blood versus reported serum half-life) amounted to 30 fold. Further, on human α-thrombin [6] (after one hour), the “proteolytic cleavage by human α-thrombin” value is recorded as “completely degraded”.

For the compound “LVPRVDKPPYLPRPRPPRrIYNr-NH2 (H-LVPRVDKPPYLPRPRPPR[dR]IYN[dR]-NH2; SMILES CC[C@H](C)[C@H](NC(=O)[C@@H](CCCNC(=N)N)NC(=O)[C@H](CCCNC(=N)N)NC(=O)[C@@H]1CCCN1C(=O)[C@@H]1CCCN1C(=O)[C@H](CCCNC(=N)N)NC(=O)[C@@H]1CCCN1C(=O)[C@H](CCCNC(=N)N)NC(=O)[C@@H]1CCCN1C(=O)[C@H](CC(C)C)NC(=O)[C@H](Cc1ccc(O)cc1)NC(=O)[C@@H]1CCCN1C(=O)[C@@H]1CCCN1C(=O)[C@H](CCCCN)NC(=O)[C@H](CC(=O)O)NC(=O)[C@@H](NC(=O)[C@H](CCCNC(=N)N)NC(=O)[C@@H]1CCCN1C(=O)[C@@H](NC(=O)[C@@H](N)CC(C)C)C(C)C)C(C)C)C(=O)N[C@@H](Cc1ccc(O)cc1)C(=O)N[C@@H](CC(N)=O)C(=O)N[C@H](CCCNC(=N)N)C(N)=O)”, the fragment found result was “LVPR-Onc112(4–23); RVDKPPYLPRPRPPRrIYNr-NH2, minor and 5–23 [Onc112]; VDKPPYLPRPRPPRrIYNr-NH2” in data set [9]; “LVPR-Onc112(4–23); RVDKPPYLPRPRPPRrIYNr-NH2, minor and 5–23 [Onc112]; VDKPPYLPRPRPPRrIYNr-NH2” in data set [10]; “LVPR-Onc112(4–23); RVDKPPYLPRPRPPRrIYNr-NH2, minor and 5–23 [Onc112]; VDKPPYLPRPRPPRrIYNr-NH2” in data set [11]; “Onc112” in data set [12]; “LVPR-Onc112(4–23); RVDKPPYLPRPRPPRrIYNr-NH2 and 5–23 [Onc112]; VDKPPYLPRPRPPRrIYNr-NH2” in data set [13]; “LVPR-Onc112(4–23); RVDKPPYLPRPRPPRrIYNr-NH2, minor and 5–23 [Onc112]; VDKPPYLPRPRPPRrIYNr-NH2” in data set [14]. Besides, the fragment found entry in data set [15] is “LVPR-Onc112(4–23); RVDKPPYLPRPRPPRrIYNr-NH2, minor and 5–23 [Onc112]; VDKPPYLPRPRPPRrIYNr-NH2”. Besides, the cleaved bond result in the data set on human α-thrombin [16] is on record as “C-terminal to Arg4 in LVPR-Onc112”.
